Reference: publication PMC5224920, “Assessing the mechanism and therapeutic potential of modulators of the human Mediator complex-associated protein kinases” (eLife, 2016)

Tested on: 12 single or co-culture in vitro tissue models of primary cells
Assay: Culture/co-culture cell model panel, extracellular biomarkers (DiscoveRx)
Format: cell-based, human
[1] = /HDFNo unstimulated fibroblasts, 1.00E4 nM
[2] = /HDFNo unstimulated fibroblasts, 1.11E3 nM
[3] = /HDFNo unstimulated fibroblasts, 1.23E2 nM
[4] = /HDFNo unstimulated fibroblasts, 1.37E1 nM
[5] = /HDFNo unstimulated fibroblasts, 3.33E3 nM
[6] = /HDFNo unstimulated fibroblasts, 3.70E2 nM
[7] = /HDFNo unstimulated fibroblasts, 4.12E1 nM
[8] = /HDFNo unstimulated fibroblasts, 4.57E0 nM

SMILES: Cc1n[nH]c2ncc(C(=O)N3CCC[C@H]3c3ccc(Cl)cc3)cc12 [CMPD4]
- M-CSF (/HDF3CT, 3.70E2 nM): -0.052
- MMP-1 (/HDF3CT, 3.70E2 nM): -0.021
- PAI-I (/HDF3CT, 3.70E2 nM): -0.054
- SRB (/HDF3CT, 3.70E2 nM): 0.014
- TIMP-2 (/HDF3CT, 3.70E2 nM): 0.055
- CCL2/MCP-1 (/HDF3CT, 4.12E1 nM): -0.025
- CD54/ICAM-1 (/HDF3CT, 4.12E1 nM): -0.054
- CD106/VCAM-1 (/HDF3CT, 4.12E1 nM): 0.009
- CXCL8/IL-8 (/HDF3CT, 4.12E1 nM): -0.089
- CXCL9/MIG (/HDF3CT, 4.12E1 nM): -0.015
- CXCL10/IP-10 (/HDF3CT, 4.12E1 nM): 0.023
- Collagen I (/HDF3CT, 4.12E1 nM): -0.036
- M-CSF (/HDF3CT, 4.12E1 nM): -0.072
- MMP-1 (/HDF3CT, 4.12E1 nM): 0.049
- PAI-I (/HDF3CT, 4.12E1 nM): -0.006
- SRB (/HDF3CT, 4.12E1 nM): 0.013
- TIMP-2 (/HDF3CT, 4.12E1 nM): 0.105
- CCL2/MCP-1 (/HDF3CT, 4.57E0 nM): 0.071
- CD54/ICAM-1 (/HDF3CT, 4.57E0 nM): -0.030
- CD106/VCAM-1 (/HDF3CT, 4.57E0 nM): 0.022
- CXCL8/IL-8 (/HDF3CT, 4.57E0 nM): -0.033
- CXCL9/MIG (/HDF3CT, 4.57E0 nM): 0.019
- CXCL10/IP-10 (/HDF3CT, 4.57E0 nM): 0.003
- Collagen I (/HDF3CT, 4.57E0 nM): 0.009
- M-CSF (/HDF3CT, 4.57E0 nM): -0.072
- MMP-1 (/HDF3CT, 4.57E0 nM): 0.086
- PAI-I (/HDF3CT, 4.57E0 nM): 0.017
- SRB (/HDF3CT, 4.57E0 nM): 0.023
- TIMP-2 (/HDF3CT, 4.57E0 nM): 0.088
- CXCL8/IL-8 [1]: 0.032
- CXCL9/MIG [1]: 0.127
- CXCL10/IP-10 [1]: 0.013
- CXCL11/I-TAC [1]: -0.046
- EGFR [1]: 0.051
- M-CSF [1]: 0.0038
- MMP-1 [1]: -0.013
- PAI-I [1]: -0.051
- Proliferation_72hr [1]: 0.179
- SRB [1]: 0.000631
- TIMP-1 [1]: 0.019
- TIMP-2 [1]: -0.228
- CXCL8/IL-8 [2]: -0.076
- CXCL9/MIG [2]: -0.081
- CXCL10/IP-10 [2]: -0.021
- CXCL11/I-TAC [2]: -0.035
- EGFR [2]: -0.009
- M-CSF [2]: -0.068
- MMP-1 [2]: -0.043
- PAI-I [2]: -0.052
- Proliferation_72hr [2]: 0.134
- SRB [2]: 0.024
- TIMP-1 [2]: 0.00471
- TIMP-2 [2]: -0.013
- CXCL8/IL-8 [3]: -0.103
- CXCL9/MIG [3]: -0.075
- CXCL10/IP-10 [3]: -0.039
- CXCL11/I-TAC [3]: -0.045
- EGFR [3]: -0.011
- M-CSF [3]: 0.013
- MMP-1 [3]: -0.032
- PAI-I [3]: 0.00163
- Proliferation_72hr [3]: 0.087
- SRB [3]: 0.010
- TIMP-1 [3]: -0.034
- TIMP-2 [3]: 0.076
- CXCL8/IL-8 [4]: -0.022
- CXCL9/MIG [4]: -0.044
- CXCL10/IP-10 [4]: -0.0053
- CXCL11/I-TAC [4]: -0.037
- EGFR [4]: 0.035
- M-CSF [4]: 0.000135
- MMP-1 [4]: -0.004
- PAI-I [4]: -0.012
- Proliferation_72hr [4]: 0.060
- SRB [4]: 0.007
- TIMP-1 [4]: 0.000829
- TIMP-2 [4]: 0.075
- CXCL8/IL-8 [5]: -0.039
- CXCL9/MIG [5]: -0.027
- CXCL10/IP-10 [5]: -0.048
- CXCL11/I-TAC [5]: -0.031
- EGFR [5]: 0.046
- M-CSF [5]: -0.016
- MMP-1 [5]: -0.033
- PAI-I [5]: -0.029
- Proliferation_72hr [5]: 0.157
- SRB [5]: 0.00444
- TIMP-1 [5]: 0.014
- TIMP-2 [5]: -0.121
- CXCL8/IL-8 [6]: -0.076
- CXCL9/MIG [6]: -0.059
- CXCL10/IP-10 [6]: -0.040
- CXCL11/I-TAC [6]: -0.00462
- EGFR [6]: -0.018
- M-CSF [6]: -0.00531
- MMP-1 [6]: -0.010
- PAI-I [6]: -0.018
- Proliferation_72hr [6]: 0.139
- SRB [6]: 0.020
- TIMP-1 [6]: 0.003
- TIMP-2 [6]: 0.082
- CXCL8/IL-8 [7]: -0.024
- CXCL9/MIG [7]: -0.065
- CXCL10/IP-10 [7]: -0.026
- CXCL11/I-TAC [7]: -0.032
- EGFR [7]: 0.00663
- M-CSF [7]: -0.024
- MMP-1 [7]: -0.026
- PAI-I [7]: -0.010
- Proliferation_72hr [7]: 0.102
- SRB [7]: 0.013
- TIMP-1 [7]: -0.020
- TIMP-2 [7]: 0.059
- CXCL8/IL-8 [8]: 0.034
- CXCL9/MIG [8]: 0.056
- CXCL10/IP-10 [8]: 0.00467
- CXCL11/I-TAC [8]: -0.00186
- EGFR [8]: 0.019
- M-CSF [8]: -0.012
- MMP-1 [8]: 0.055
- PAI-I [8]: 0.075
- Proliferation_72hr [8]: 0.072
- SRB [8]: 0.043
- TIMP-1 [8]: 0.048
- TIMP-2 [8]: -0.057
- CCL2/MCP-1 (/HDFNo, 1.00E4 nM): 0.040
- CD54/ICAM-1 (/HDFNo, 1.00E4 nM): 0.094
- CD106/VCAM-1 (/HDFNo, 1.00E4 nM): 0.027
- Collagen I (/HDFNo, 1.00E4 nM): 0.067
- Collagen III (/HDFNo, 1.00E4 nM): -0.015
- CCL2/MCP-1 (/HDFNo, 1.11E3 nM): 0.00326
- CD54/ICAM-1 (/HDFNo, 1.11E3 nM): -0.048
- CD106/VCAM-1 (/HDFNo, 1.11E3 nM): -0.067
- Collagen I (/HDFNo, 1.11E3 nM): -0.022
- Collagen III (/HDFNo, 1.11E3 nM): 0.013
- CCL2/MCP-1 (/HDFNo, 1.23E2 nM): -0.009
- CD54/ICAM-1 (/HDFNo, 1.23E2 nM): -0.013
- CD106/VCAM-1 (/HDFNo, 1.23E2 nM): -0.096
- Collagen I (/HDFNo, 1.23E2 nM): -0.065
- Collagen III (/HDFNo, 1.23E2 nM): 0.012
- CCL2/MCP-1 (/HDFNo, 1.37E1 nM): -0.022
- CD54/ICAM-1 (/HDFNo, 1.37E1 nM): -0.024
- CD106/VCAM-1 (/HDFNo, 1.37E1 nM): 0.020
- Collagen I (/HDFNo, 1.37E1 nM): -0.080
- Collagen III (/HDFNo, 1.37E1 nM): 0.026
- CCL2/MCP-1 (/HDFNo, 3.33E3 nM): -0.021
- CD54/ICAM-1 (/HDFNo, 3.33E3 nM): -0.005
- CD106/VCAM-1 (/HDFNo, 3.33E3 nM): -0.034
- Collagen I (/HDFNo, 3.33E3 nM): -0.014
- Collagen III (/HDFNo, 3.33E3 nM): 0.025
- CCL2/MCP-1 (/HDFNo, 3.70E2 nM): -0.005
- CD54/ICAM-1 (/HDFNo, 3.70E2 nM): -0.029
- CD106/VCAM-1 (/HDFNo, 3.70E2 nM): -0.058
- Collagen I (/HDFNo, 3.70E2 nM): -0.055
- Collagen III (/HDFNo, 3.70E2 nM): 0.000891
- CCL2/MCP-1 (/HDFNo, 4.12E1 nM): 0.007
- CD54/ICAM-1 (/HDFNo, 4.12E1 nM): -0.036
- CD106/VCAM-1 (/HDFNo, 4.12E1 nM): -0.047
- Collagen I (/HDFNo, 4.12E1 nM): -0.086
- Collagen III (/HDFNo, 4.12E1 nM): 0.030
- CCL2/MCP-1 (/HDFNo, 4.57E0 nM): 0.025
- CD54/ICAM-1 (/HDFNo, 4.57E0 nM): 0.028
- CD106/VCAM-1 (/HDFNo, 4.57E0 nM): 0.010
